Positions count from the first letter of the chain named.
Legend:
Assay type in all cases: cell-based
[1] = target: T1, human PKD2-L1 (Wt), homomeric channel (Homo sapiens, UniProt Q9P0L9); experiment: whole-cell patch clamp, current block, voltage ramps, Hill fit
T1 construct: gene PKD2L1; full-length isoform 1 in pTracer CMV2, transiently transfected HEK 293T cells; homotetramer; whole-cell patch clamp
T1 sequence (Q9P0L9 1-805): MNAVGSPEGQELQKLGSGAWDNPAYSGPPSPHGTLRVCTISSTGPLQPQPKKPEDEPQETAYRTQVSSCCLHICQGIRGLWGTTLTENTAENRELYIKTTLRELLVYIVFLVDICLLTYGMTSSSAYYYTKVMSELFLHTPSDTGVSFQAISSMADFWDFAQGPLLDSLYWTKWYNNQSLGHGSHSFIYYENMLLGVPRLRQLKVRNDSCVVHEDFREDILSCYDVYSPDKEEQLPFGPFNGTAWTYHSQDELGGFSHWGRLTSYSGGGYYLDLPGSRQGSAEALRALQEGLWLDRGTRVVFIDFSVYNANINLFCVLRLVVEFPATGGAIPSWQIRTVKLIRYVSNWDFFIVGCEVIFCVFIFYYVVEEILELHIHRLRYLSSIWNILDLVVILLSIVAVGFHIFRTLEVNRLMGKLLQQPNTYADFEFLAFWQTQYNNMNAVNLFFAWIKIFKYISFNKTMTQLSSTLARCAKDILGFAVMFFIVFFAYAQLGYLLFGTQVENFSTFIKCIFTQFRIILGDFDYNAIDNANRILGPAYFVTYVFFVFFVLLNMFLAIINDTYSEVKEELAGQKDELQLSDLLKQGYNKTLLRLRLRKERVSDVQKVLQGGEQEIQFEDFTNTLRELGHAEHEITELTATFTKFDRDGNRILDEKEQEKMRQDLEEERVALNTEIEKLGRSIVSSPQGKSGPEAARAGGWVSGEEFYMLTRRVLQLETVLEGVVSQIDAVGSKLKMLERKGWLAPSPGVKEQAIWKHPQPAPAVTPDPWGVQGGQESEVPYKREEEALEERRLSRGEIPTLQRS

[2] = target: T2, human PKD2-L1, homomeric channel (Homo sapiens, UniProt Q9P0L9, D523N); experiment: as above
T2 construct: gene PKD2L1; full-length isoform 1 in pTracer CMV2, transiently transfected HEK 293T cells; homotetramer; whole-cell patch clamp
T2 sequence (Q9P0L9 1-805 D523N): T1 sequence (Q9P0L9 1-805) with D523N

[3] = target: T2, human PKD2-L1, homomeric channel; experiment: whole-cell patch clamp, current potentiation, voltage ramps
[4] = target: T1, human PKD2-L1 (Wt), homomeric channel; experiment: as above

IC50 [1]	IC50 [2]	EC50 [3]	EC50 [4]	SMILES
31 ± 5 µM	23 ± 3 µM	–	–	CCCCOc1cc(C(=O)NCCN(CC)CC)c2ccccc2n1 [dibucaine]
–	–	9 ± 7 µM	2.6 ± 6 µM	Clc1ccc(C(c2ccc(Cl)cc2)n2cc[n+](CC(OCc3ccc(Cl)cc3Cl)c3ccc(Cl)cc3Cl)c2)cc1 (stereo not shown) [calmidazolium]
